According to paper PMC9246016 (Pharmaceutical Biology, 2022):

Assays:
[1] = Pharmacokinetics of ROS after 10-day multiple-dose GLT in rats; assay type: in vivo, Sprague-Dawley rats; conditions: ROS 10 mg/kg oral; for AUC(0-t) / Cmax / MRT / Tmax / half-life: male, Sprague-Dawley, rat, plasma, po, 10 mg/kg
[2] = Pharmacokinetics of ROS with single-dose GLT in rats; conditions: for CL/F / AUC(0-t) / Cmax / MRT / Tmax: ROS 10 mg/kg oral; for AUC(0-t) / Cmax / MRT / Tmax / half-life: male, Sprague-Dawley, rat, plasma, po, 10 mg/kg; for AUC(0-t): AUC0-t; for half-life: t1/2, ROS 10 mg/kg oral; for extension of MRT vs control: ROS 10 mg/kg
CYP2C9 and CYP3A4 = tested on: CYP2C9 and CYP3A4; parameters: method as in He and Edeki [2004]; conditions: inhibitory effects appear negligible; ref He and Edeki [2004]; cited from earlier work
[3] = target: T1, recombinant human CYP2C8 (RHCYP2C8) (Homo sapiens, UniProt P10632); experiment: Inhibition of RHCYP2C8 yeast microsomes, probe substrate amodiaquine; conditions: for inhibitor intensity classification for CYP2C8: class by IC50, general rules (Testa 2007)
T1 sequence (P10632 1-490): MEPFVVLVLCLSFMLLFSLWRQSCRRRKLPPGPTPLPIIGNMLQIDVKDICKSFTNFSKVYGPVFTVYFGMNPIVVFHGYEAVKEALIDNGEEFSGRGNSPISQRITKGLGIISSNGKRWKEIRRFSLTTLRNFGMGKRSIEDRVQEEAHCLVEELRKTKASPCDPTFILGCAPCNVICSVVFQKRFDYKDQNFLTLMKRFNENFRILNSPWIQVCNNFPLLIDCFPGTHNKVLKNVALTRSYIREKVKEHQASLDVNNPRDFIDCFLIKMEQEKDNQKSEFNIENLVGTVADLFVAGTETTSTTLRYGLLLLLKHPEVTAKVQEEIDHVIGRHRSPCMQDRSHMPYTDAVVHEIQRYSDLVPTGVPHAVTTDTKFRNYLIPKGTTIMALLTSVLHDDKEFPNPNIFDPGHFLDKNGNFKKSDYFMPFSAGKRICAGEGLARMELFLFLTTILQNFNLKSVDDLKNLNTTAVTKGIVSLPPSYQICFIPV
Description: (§1) RHCYP2C8 and RHCYP2C9 yeast microsomes were extracted using the glass bead crushing method and differential centrifugation, with grinding 15 times by 0.5 g glass beads and centrifugation at 9,000 g for 20 min at 4 °C. The supernatant was then centrifuged at 100,000 g at 4 °C (BECKMAN COULTER Optima™ L-80 XP Ultracentrifuge) for 1 h, and the precipitation was RHCYP2C8 or RHCYP2C9 yeast microsome. Reconstituted with potassium phosphate buffer (pH 7.4), the microsome solution was collected and stored at −80 °C for subsequent examination. Protein concentrations of microsomes were determined using the Lowry method.
Amodiaquine and diclofenac are typical CYP2C8 and CYP2C9 probe substrates, respectively. […] The 0.4 mL incubation mixtures contained inhibitors (0–500 μmol/L), potassium phosphate buffer (pH 7.4) in common, and RHCYP2C8 (12.4 mg/mL) with amodiaquine or RHCYP2C9 (4.6 mg/mL) with diclofenac. […] The reactions were initiated by the addition of NADPH with pre-incubation 10 min in advance and carried out for 40 min.
(§2) The CYP2C8 sample treatment process was that incubation was terminated by adding 200 μL of methanol. Samples were centrifuged at 12,000 rpm for 10 min, and the supernatant was subjected to HPLC. The CYP2C9 sample treatment process was that each sample (100 μL) was spiked with 10 μL of carbamazepine (30 μg/mL). The mixture was then extracted with 500 μL ethyl acetate by vortexing for 3 min and centrifuged at 12,000 rpm for 10 min. […] The residue was dissolved in 100 μL methanol for HPLC analysis.

CYP2C8 = tested on: CYP2C8; parameters: method as in Unger and Frank [2004]; conditions: ref Unger and Frank [2004]; read-out: IC50 for CYP2C8 (previous finding); cited from earlier work
[4] = target: recombinant human CYP2C9 (RHCYP2C9) (Homo sapiens, UniProt P11712); experiment: Inhibition of RHCYP2C9 yeast microsomes, probe substrate diclofenac; conditions: for inhibitor intensity classification for CYP2C9: class by IC50, general rules (Testa 2007)
recombinant human CYP2C9 (RHCYP2C9), sequence (P11712 whole entry): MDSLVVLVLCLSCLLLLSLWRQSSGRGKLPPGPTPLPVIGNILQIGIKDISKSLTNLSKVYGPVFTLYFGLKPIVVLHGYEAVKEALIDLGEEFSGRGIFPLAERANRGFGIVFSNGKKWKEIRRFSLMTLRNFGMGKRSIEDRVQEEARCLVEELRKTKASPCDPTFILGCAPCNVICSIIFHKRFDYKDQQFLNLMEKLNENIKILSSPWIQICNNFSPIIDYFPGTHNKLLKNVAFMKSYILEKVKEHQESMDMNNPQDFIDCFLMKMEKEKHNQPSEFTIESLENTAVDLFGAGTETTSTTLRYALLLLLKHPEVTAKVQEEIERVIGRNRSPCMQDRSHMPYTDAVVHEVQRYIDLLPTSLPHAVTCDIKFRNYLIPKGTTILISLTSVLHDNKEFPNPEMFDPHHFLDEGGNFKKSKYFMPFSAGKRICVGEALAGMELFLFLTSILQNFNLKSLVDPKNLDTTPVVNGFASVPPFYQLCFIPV
Description: as §1
Amodiaquine and diclofenac are typical CYP2C8 and CYP2C9 probe substrates, respectively. […] The reactions were initiated by the addition of NADPH with pre-incubation 10 min in advance and carried out for 40 min.
as §2

[5] = multiple-dose GLT 100 mg/kg for 10 days
[6] = multiple-dose GLT 200 mg/kg for 10 days

Compound: CN(CCOc1ccc(CC2SC(=O)NC2=O)cc1)c1ccccn1 (centres unmarked) [ROS, Rosiglitazone]
- CL/F ([1]; control (vehicle 10 days)): 13.92 ± 3.04 mL/h
- CL/F [1, 5]: 25.54 ± 9.02 mL/h
- CL/F [1, 6]: 30.00 ± 8.52 mL/h
- AUC(0-t) ([1]; control (vehicle 10 days)): 140 ± 45.5 µg·h/mL
- Cmax ([1]; control (vehicle 10 days)): 38700 ± 9730 ng/mL
- MRT ([1]; control (vehicle 10 days)): 3.27 ± 0.65 h
- Tmax ([1]; control (vehicle 10 days)): 0.79 ± 0.4 h
- half-life ([1]; control (vehicle 10 days)): 2.75 ± 0.7 h
- AUC(0-t) [1, 5]: 84.6 ± 39.9 µg·h/mL
- Cmax [1, 5]: 28500 ± 5560 ng/mL
- MRT [1, 5]: 2.95 ± 1.13 h
- Tmax [1, 5]: 0.54 ± 0.25 h
- half-life [1, 5]: 1.99 ± 0.44 h
- AUC(0-t) [1, 6]: 66.6 ± 15.9 µg·h/mL
- Cmax [1, 6]: 28400 ± 4640 ng/mL
- MRT [1, 6]: 2.13 ± 0.28 h
- Tmax [1, 6]: 0.37 ± 0.13 h
- half-life [1, 6]: 1.68 ± 0.35 h
- CL/F ([2]; control (vehicle), single dose): 16.46 ± 1.91 mL/h
- CL/F ([2]; single-dose GLT 100 mg/kg): 14.58 ± 2.12 mL/h
- CL/F ([2]; single-dose GLT 200 mg/kg): 13.97 ± 3.43 mL/h
- AUC(0-t) ([2]; control (vehicle), single dose): 117 ± 12.2 µg·h/mL
- AUC(0-t) ([2]; single-dose GLT 100 mg/kg): 130 ± 24.3 µg·h/mL
- AUC(0-t) ([2]; single-dose GLT 200 mg/kg): 139 ± 40.6 µg·h/mL
- Cmax ([2]; control (vehicle), single dose): 29100 ± 5980 ng/mL
- Cmax ([2]; single-dose GLT 100 mg/kg): 28800 ± 5860 ng/mL
- Cmax ([2]; single-dose GLT 200 mg/kg): 26000 ± 6990 ng/mL
- MRT ([2]; control (vehicle), single dose): 3.02 ± 0.28 h
- MRT ([2]; single-dose GLT 100 mg/kg): 3.66 ± 0.63 h
- MRT ([2]; single-dose GLT 200 mg/kg): 4.24 ± 1.04 h
- Tmax ([2]; control (vehicle), single dose): 0.9 ± 0.34 h
- Tmax ([2]; single-dose GLT 100 mg/kg): 1.01 ± 0.65 h
- Tmax ([2]; single-dose GLT 200 mg/kg): 0.8 ± 0.26 h
- half-life ([2]; control (vehicle), single dose): 2.14 ± 0.38 h
- half-life ([2]; single-dose GLT 100 mg/kg): 2.79 ± 0.37 h
- half-life ([2]; single-dose GLT 200 mg/kg): 3.26 ± 1.08 h
- extension of MRT vs control ([2]; single-dose GLT 100 mg/kg): 21%
- extension of MRT vs control ([2]; single-dose GLT 200 mg/kg): 40%

Compound: ginkgolide B
- concentrations at which effects are pronounced (CYP2C9 and CYP3A4): greater than 100 μmol/L

Compound: O=c1c(O)c(-c2ccc(O)c(O)c2)oc2cc(O)cc(O)c12 [quercetin]
- inhibitor intensity classification for CYP2C8 [3]: moderate (moderate inhibitors are between 1 and 10 μmol/L)
- inhibitor intensity classification for CYP2C9 [4]: weak (weak inhibitors are over 10 μmol/L)

Compound: O=c1c(O)c(-c2ccc(O)cc2)oc2cc(O)cc(O)c12 [kaempferol]
- IC50 [3]: 7.67 µM
- inhibitor intensity classification for CYP2C8 [3]: moderate (moderate inhibitors are between 1 and 10 μmol/L)
- IC50 [4]: 7.57 µM
- inhibitor intensity classification for CYP2C9 [4]: moderate (moderate inhibitors are between 1 and 10 μmol/L)

Compound: COc1cc(-c2oc3cc(O)cc(O)c3c(=O)c2O)ccc1O [isorhamnetin]
- IC50 [3]: 11.9 µM
- inhibitor intensity classification for CYP2C8 [3]: weak (weak inhibitors are over 10 μmol/L)
- IC50 [4]: 4.59 µM
- inhibitor intensity classification for CYP2C9 [4]: moderate (moderate inhibitors are between 1 and 10 μmol/L)
